# Test results from article PMC7076875 (2020).
# System: apt 32 (DNA, aptamer) AAAAAAAAAAAAGGGCACGTGTTGTCTCTCTGTGTCTCGTGCCC
# Assay: lateral flow strip, competition with complementary strand
# Details: 120 mM NaCl, 5 mM KCl, 200 mM MgCl2; 10 mM Tris pH 7.4, 5% methanol, room temperature; immobilised probe 2 competes; tested at 100 ng/mL
row,Structure (SMILES),binding
1,CCCC[C@@H](C)[C@@H](OC(=O)C[C@@H](CC(=O)O)C(=O)O)[C@H](C[C@@H](C)C[C@H](O)CCCC[C@@H](O)C[C@H](O)[C@H](C)N)OC(=O)C[C@@H](CC(=O)O)C(=O)O,no
2,C[C@@H]1Cc2c(Cl)cc(C(=O)N[C@@H](Cc3ccccc3)C(=O)O)c(O)c2C(=O)O1,no
3,C[C@H]1CCCC(=O)CCC/C=C/c2cc(O)cc(O)c2C(=O)O1,no
